d = 2'-deoxy (DNA); r = 2'-OH (RNA)
What was measured:
[1] = test system: LNCaP-Hsp27 cells; assay: Crystal violet cell growth assay, LNCaP-Hsp27 cells; assay type: cell-based, human
Description: (§1) In brief, cells were seeded in each well of 12-well microtiter plates (30 000 to 50 000 cells per well) and allowed to attach overnight. To study the effect of TCTP downregulation on apoptosis induced by docetaxel, PC-3 cells were transiently transfected the day after seeding with 5 nM of TCTP siRNA for 48 h or 100 nM of TCTP ASO for 72 h. Cells were then treated with 50 nM of docetaxel and MTT assays were performed after 24 h. To assess the effect of TCTP downregulation on Hsp27 cytoprotection, LNCaP-Mock and -Hsp27 cells were transiently transfected the day after seeding with 5 nM of TCTP siRNA for 48 h. The down- or upregulation of TCTP effect on LNCaP and C4-2 cell viability was realized after transient transfections with 100 nM of TCTP ASO or 0.02 μg/μl of pDEST-TCTP for 72 h and 48 h respectively. Cells were then treated with 1 nM of docetaxel in serum-free media (mimics androgen withdrawal in vitro) and crystal violet assays were performed the day after. Each assay was performed in triplicate.
To study the functional role of TCTP in CRPC, siRNA-induced inhibition of TCTP expression was used to determine whether the reduction of TCTP expression affects LNCaP-Mock and -Hsp27 cell growth after combined androgen withdrawal and docetaxel-chemotherapy treatment in vitro.
In order to study consequences of TCTP inhibition on cell survival after combined androgen withdrawal and docetaxel-chemotherapy treatment, cell viability of LNCaP-Mock and -Hsp27 was determined using crystal violet dye after 24 h treatment with 1 nM of docetaxel in serum-free media (mimics androgen withdrawal in vitro). […] After TCTP siRNA plus docetaxel in serum-free medium treatment (mimics androgen withdrawal in vitro), we found an 80% (**, P≤0.01) reduction in LNCaP-Hsp27 cell growth rate versus a 50% (**, P≤0.01) reduction in LNCaP-Mock compared to control.

[2] = test system: C4-2 cells; assay: Crystal violet cell growth assay, C4-2 cells; assay type: cell-based, human
Description: as §1
Finally, in order to assess if TCTP ASO has the same effect on prostatic cancer cell lines expressing the androgen receptor (AR), crystal violet dye was used to examin LNCaP and C4-2 cell growth. LNCaP and C4-2 were treated with 100 nM TCTP or control ASO (FIGS. 15 A and B) for 2 days. Then, LNCaP and C4-2 cells were incubated with 1 nM of docetaxel in serum-free media.

[3] = test system: PC-3 tumors; assay: PC-3 tumor growth in vivo in athymic nude mice
Description: Approximately 3.10^6 PC-3 cells and 10.10^6 LNCaP cells were inoculated subcutaneously with 0.1 mL of Dulbecco's Modified Eagle's Medium (Invitrogen) supplemented with 10% FCS for PC-3 or with 0.1 mL of Matrigel (BD Biosciences Discovery Labware) for LNCaP in the flank region of 4-week-old male athymic nude mice (Charles River, L'Arbresle, France) via a 23-gauge needle. When PC-3 tumors reached 50 mm^3, usually 3 to 4 weeks after injection, mice were randomly selected for treatment with TCTP ASO alone, scrambled ASO alone, TCTP ASO plus docetaxel or scrambled ASO plus docetaxel. Mice bearing LNCaP tumors between 200 and 300 mm^3 in volume were castrated via scrotal approach and randomly assigned to a treatment arm. Mice were treated beginning 1 week after castration with TCTP ASO or control ASO alone and serum PSA measurements were done weekly. For both experiments, each experimental group consisted in 10 mice and the tumor volume measurements were performed once weekly and calculated by the formula length×width×depth×0.5236 (Gleave et al., 1999, Clin Cancer Res 5:2891-8). After randomization, 10 mg/kg TCTP or scrambled ASO was injected intraperitoneally (i.p) once daily for 60 days for ASO monotherapy groups and 90 days for the ASO plus docetaxel groups. A total of 35 mg/kg docetaxel was administrated i.p. three times per week from days 7 to 14. Tumor volume measurements were performed once weekly and calculated by the formula length×width×depth×0.5236 (20). Data points were expressed as average tumor volume levels +/−standard error (SE). All animal procedures were performed in accordance with protocols approved by French laws and the European directives and with appropriate institutional certification.
We next evaluated the effects of TCTP ASO treatment on the growth of PC-3 tumors in vivo (FIG. 8). Male nude mice bearing PC-3 tumors (50 mm^3) were randomly selected for TCTP ASO versus scrambled ASO and 10 mg/kg ASO were administrated once daily by i.p. injection for […]. From days 7 to 14, 30 mg/kg of docetaxel was administrated i.p. 3 days in the week. Mean tumor volume was similar in all groups before therapy.
TCTP inhibition was evaluated in nude mice xenografted with the PC3 CRPC cell line. The animals were treated in an everyday basis and for a period of two months by peritoneal injection of ASO or control TCTP once their tumor volume was 200-300 mm^3. In order to evaluate the additive anticancer activity of ASO TCTP, mice were treated with docetaxel (33 mg/kg) by peritoneal injection three times per week for one week prior to ASO or control TCTP injections. For all experiments, the average tumor volume was measured once a week.

Substance | cytoprotection to androgen withdrawal and docetaxel conferred by Hsp27 overexpression ([1]; siRNA 5 nM) | reduction in LNCaP-Hsp27 cell growth rate ([1]; siRNA 5 nM alone, compared with control) [%] | reduction in LNCaP-Hsp27 cell growth rate ([1]; siRNA plus 1 nM docetaxel in serum-free medium, 24 h) [%] | C4-2 cell growth ([2]; 100 nM ASO for 2 days) | sensitivity to docetaxel and androgen withdrawal ([2]; C4-2, 100 nM ASO 2 days then 1 nM docetaxel in serum-free media) | tumor volume ([3]; PC3 xenografted nude mice, 10th week of treatment) [mm^3] | tumor volume maintained ([3]; PC3 xenografted nude mice, docetaxel (33 mg/kg) followed by ASO TCTP) [mm^3] | reduction of mean PC-3 tumor volume ([3]; TCTP ASO plus docetaxel vs scrambled control, 13 weeks after initiation of treatment) [%] | harvested tumors smaller in appearance ([3]; after two weeks of i.p. treatment) [%] | general toxicity (animal behavior, body weight) ([3]; mice bearing PC-3 tumors, body weight t0 vs tf) | reduction of PC-3 tumor volume ([3]; monotherapy 10 mg/kg i.p. once daily, days 56 to 70, vs scrambled control) [%] | cleaved caspase-3 fragments in harvested PC-3 tumors ([3]; western blotting, i.p. delivery)
5′-AACCCGUCCGCGAUCUCCCdGdG-3′ (AACCCGUCCGCGAUCUCCCGG; siRNA; sugars from the 5' end r19 d2, backbone not given here) [TCTP siRNA, from Qiagen] | reversed the cytoprotection | 50 | 80 | – | – | – | – | – | – | – | – | –
5′-ACCAATGAGCGAGTCATCAA-3′ (phosphorothioate backbone, further chemistry not given here) [ASO10] | – | – | – | considerably decrease | enhance treatments (docetaxel and androgen withdrawal) sensitivity | 500 | 100 | < 70 | 50 | did not cause general toxicity | 50 | presence of cleaved caspase-3 fragments
